The values below come from paper PMC3401595 (Bioorganic & medicinal chemistry, 2012).

In one assay the target is δ opioid receptor (Homo sapiens, UniProt P41143). Briefly: biochemical. In kind it is binding.
The conditions of assay [1]: higher than I; cited from earlier work.
The conditions of assay [2]: higher than I; cited from earlier work. The source holds these as a separate data set.
For assay [3] the following is noted: systemic administration; greater than I; cited from earlier work.

Sequence of δ opioid receptor (P41143 whole entry): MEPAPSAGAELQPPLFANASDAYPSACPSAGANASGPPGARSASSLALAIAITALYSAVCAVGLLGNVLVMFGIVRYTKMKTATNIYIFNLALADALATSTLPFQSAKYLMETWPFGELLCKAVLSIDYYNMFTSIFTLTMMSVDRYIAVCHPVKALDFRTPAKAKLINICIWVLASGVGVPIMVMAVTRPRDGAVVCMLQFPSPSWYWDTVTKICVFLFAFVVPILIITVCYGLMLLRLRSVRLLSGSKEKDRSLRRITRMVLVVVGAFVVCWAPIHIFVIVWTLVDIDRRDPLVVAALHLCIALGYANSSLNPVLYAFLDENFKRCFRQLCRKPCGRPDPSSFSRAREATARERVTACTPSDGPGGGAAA

With `CN(CCOCCCc1ccccc1)Cc1ccccc1` [Compound 34, N-benzyl-N-methyl-2-(3-phenylpropoxy)ethanamine], on δ opioid receptor, the Ki – broadly, the equilibrium dissociation constant of an inhibitor or competing ligand from its target – was > 10 µM. The same measure, in the same setting: the value for `CN(CCCc1ccccc1)CCOC/C=C/c1ccccc1` [Compound 37, 2-(Cinnamyloxy)-N-methyl-N-phenylpropylethanamine] was > 10 µM; that for `CCCCN(CCCC)CCOCCCc1ccccc1` [Compound 18, N,N-dibutyl-2-(3-phenylpropoxy)ethanamine] was > 10 µM. In the case of `CN1CCC23c4c5ccc(O)c4OC2(C)C(=O)CCC3(OCCCc2ccccc2)C1C5` (centres unmarked) [III, 14-phenylpropyloxymetopon], in assay [1], the “potency in the hot plate assay as compared to I (morphine)” value is on record as 8500 fold. In assay [2], the “potency in the tail flick assay as compared to I (morphine)” value is listed as 24000 fold. Consider `CN(CCOC/C=C/c1ccccc1)Cc1ccccc1` [Compound 33, N-benzyl-2-(cinnamyloxy)-N-methylethanamine], for which, on δ opioid receptor, the Ki was > 10 µM. For the compound `CO[C@@]12CCC(=O)[C@]3(C)Oc4c(O)ccc5c4[C@@]31CCN(C)[C@@H]2C5` [II, 14-methoxymetopon], the “systemic antinociceptive potency relative to I (morphine)” value in assay [3] was 500 fold.

For the compound `CCCCN(CCCC)CCOC/C=C/c1ccccc1` [Compound 17, 2-(Cinnamyloxy)-N,N-dibutylethanamine], the Ki at δ opioid receptor was > 10 µM.
